Data reported in US7713994B2 (Wyeth LLC, priority 2005, dated 2010).
Like-named read-outs stand apart in the source and are kept apart here.

Experiments:
MCF-7 = assay: Cytotoxicity assay (SRB), MCF-7; type: cell-based; conditions: Homo sapiens, MCF7, 72 h, read-out: In Vitro Cellular Activity IC50 MCF-7
Procedure: (§1) BT474, HCT-116, LoVo and MCF-7 were maintained under 7% CO2 in RPMI 1640 medium supplemented with 10% fetal bovine serum and 50 µg/ml gentamicin.
(§2) Cells were plated in 96-well microtiter dishes (12000 cells/well for BT474, 4000 cells/well for HCT-116, 6000 cells/well for LoVo and 6000 cells/well for MCF-7) in RPMI 1640 medium containing 5% fetal bovine serum and 50 µg/ml gentamicin. The cells were allowed to incubate overnight at 37° C., 7% CO2. Compound dilutions were prepared using the same medium. HCT-116, LoVo and MCF-7 cells were cultured for three days and BT474 cells were cultured for 6 days, in the presence of each compound dilution. Untreated cells were included as controls. The percentage of surviving cells was determined using a protein binding dye (sulforhodamineB, SRB) assay. Cellular protein was precipitated in each well by the addition of 0.05 ml of 50% cold trichloroacetic acid (TCA). After 1 hour, the plates were washed extensively in dH2O and dried. The sulforhodamineB dye solution (0.08 mL of 0.4% SRB in 1% acetic acid) was added to each well, kept at room temperature for ten minutes, then washed in 1% acetic acid and dried. The dye was dissolved in 10 mM Tris-HCl (150 uL) and the absorbency read at 540 nm.

HCT-116 = assay: Cytotoxicity assay (SRB), HCT-116; type: cell-based; conditions: Homo sapiens, HCT-116, 72 h, read-out: In Vitro Cellular Activity IC50 HCT116
Procedure: as §1, §2

cyclin D1/cdk 4 enzyme = target: T1, cyclin D1/cdk 4 enzyme (Homo sapiens, UniProt P11802); assay: CDK4 ELISA kinase assay (phospho-Rb ser 795 detection); type: biochemical; conditions: In Vitro Enzyme Assay, cyclin D1/cdk 4, read-out: CDK4 IC50
T1 construct: made in house; host or cells: Sf9 insect cells, recombinant baculovirus
Summary of the method: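 Screening was done at 10 ug/ml compound. Each partially purified cyclin/CDK complex, produced in baculovirus-infected Sf9 cells, phosphorylated a coated GST-Rb C-terminal fragment with 200 μM ATP, and Ser795 phosphorylation was quantified by HRP-ELISA at 450 nm.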

LoVo = assay: Cytotoxicity assay (SRB), LoVo; type: cell-based; conditions: Homo sapiens, LoVo, 72 h, read-out: In Vitro Cellular Activity IC50 LOVO
Procedure: as §1, §2

BT474 = assay: Cytotoxicity assay (SRB), BT474; type: cell-based; conditions: Homo sapiens, BT-474, 144 h, read-out: In Vitro Cellular Activity IC50 BT474
Procedure: as §1, §2

T1 sequence (P11802 whole entry, species assumed): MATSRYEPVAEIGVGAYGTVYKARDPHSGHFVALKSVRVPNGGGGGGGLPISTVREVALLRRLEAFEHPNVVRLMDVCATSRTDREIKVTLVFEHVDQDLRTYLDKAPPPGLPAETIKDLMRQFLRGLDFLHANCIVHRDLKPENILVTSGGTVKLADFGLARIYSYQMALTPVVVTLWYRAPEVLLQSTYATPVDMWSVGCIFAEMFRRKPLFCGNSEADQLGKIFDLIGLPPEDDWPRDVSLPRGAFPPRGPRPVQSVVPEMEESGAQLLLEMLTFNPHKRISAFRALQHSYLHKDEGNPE
T1 sequence (P24385 whole entry partner, species assumed): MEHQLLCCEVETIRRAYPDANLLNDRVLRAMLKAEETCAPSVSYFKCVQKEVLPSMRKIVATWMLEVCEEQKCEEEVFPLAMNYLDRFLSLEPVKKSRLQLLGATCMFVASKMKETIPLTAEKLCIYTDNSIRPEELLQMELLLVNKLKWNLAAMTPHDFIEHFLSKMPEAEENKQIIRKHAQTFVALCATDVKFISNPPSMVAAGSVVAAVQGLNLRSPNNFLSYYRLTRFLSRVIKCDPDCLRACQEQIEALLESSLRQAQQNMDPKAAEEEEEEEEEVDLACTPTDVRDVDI

Compound	IC50 (MCF-7; MCF-7 cells, 3 days, SRB) [µM]	IC50 (HCT-116; HCT116 cells, 3 days, SRB) [µM]	IC50 (LoVo; LoVo cells, 3 days, SRB) [µM]	IC50 (BT474; BT474 cells, 6 days, SRB) [µM]	IC50 (MCF-7; MCF-7 cells, SRB, three days) [µM]	IC50 (HCT-116; HCT116 cells, SRB, three days) [µM]	IC50 (LoVo; LoVo cells, SRB, three days) [µM]	IC50 (BT474; BT474 cells, SRB, 6 days) [µM]	also measured
NS(=O)(=O)c1ccc(CNC=C2C(=O)NC(=O)c3ccc(C=Cc4ccccc4)cc32)cc1 [Example 654, 4-{[(1,3-Dioxo-6-styryl-2,3-dihydro-1H-isoquinolin-4-ylidenemethyl)-amino]-methyl}-benzenesulfonamide]	10.7	2.4	13.1	3.1	–	–	–	–	IC50 (cyclin D1/cdk 4 enzyme): 2 µM
CN1CCN(c2ccc(NC=C3C(=O)NC(=O)c4ccc(-c5cc6ccccc6o5)cc43)cc2)CC1 [Example 669, 6-Benzofuran-2-yl-4-{[4-(4-methyl-piperazin-1-yl)-phenylamino]-methylene}-4H-isoquinoline-1,3-dione]	2.9	2.9	20.6	2	–	–	–	–	IC50 (cyclin D1/cdk 4 enzyme): 9.6 µM
N#CCc1ccc(NC=C2C(=O)NC(=O)c3ccc(-c4cc5ccccc5s4)cc32)cc1 [Example 627, {4-[(6-Benzo[b]thiophen-2-yl-1,3-dioxo-2,3-dihydro-1H-isoquinolin-4-ylidenemethyl)-amino]-phenyl}-acetonitrile]	7.3	> 50	> 50	4.3	–	–	–	–	IC50 (cyclin D1/cdk 4 enzyme): 10.4 µM
CCOP(=O)(OCC)c1ccc2c(c1)/C(=C/Nc1ccc(N3CCN(C)CC3)cc1)C(=O)NC2=O [Example 284, Diethyl [(4Z)-4-({[4-(4-methylpiperazin-1-yl)phenyl]amino}methylene)-1,3-dioxo-1,2,3,4-tetrahydroisoquinolin-6-yl]phosphonate]	–	–	–	–	–	–	–	–	IC50 (MCF-7): 12 µM; IC50 (HCT-116): 20 µM; IC50 (LoVo): 25 µM; IC50 (BT474): > 50 µM
CN1C(=O)/C(=C\Nc2ccc(CN3CCCCC3)cc2)c2ccccc2C1=O [Example 49, (4Z)-2-Methyl-4-{[(4-piperidin-1-ylmethyl)phenyl]amino}methyleneisoquinoline-1,3(2H,4H)-dione]	–	–	–	–	–	–	–	–	IC50 (MCF-7): 13 µM; IC50 (HCT-116): 5.5 µM; IC50 (LoVo): 11.5 µM; IC50 (BT474): 6.85 µM
O=C1NC(=O)c2ccc(Br)cc2/C1=C/NCc1ccc2cc[nH]c2c1 [Example 129, (4Z)-6-Bromo-4-{[(1H-indol-6-ylmethyl)amino]methylene}isoquinoline-1,3(2H,4H)-dione]	–	–	–	–	39	26	> 50	30	–
O=C1NCc2ccccc2C1=CNc1cccc(O)c1 [Example 859, 4-[(3-Hydroxy-phenylamino)-methylene]-1,4-dihydro-2H-isoquinolin-3-one]	20.6	40.4	40	31.2	–	–	–	–	–
O=C1NCc2ccccc2C1=CNc1ccc(N2CCCCC2)cc1 [Example 860, 4-[(4-Piperidin-1-yl-phenylamino)-methylene]-1,4-dihydro-2H-isoquinolin-3-one]	40	33	36.1	35.2	–	–	–	–	–
CC(C)(C)OC(=O)N1CCCC1c1ccc(N/C=C2\C(=O)NC(=O)c3ccc(I)cc32)cc1 (stereo not drawn) [Example 461, 2-{4-[(6-Iodo-1,3-dioxo-2,3-dihydro-1H-isoquinolin-4-ylidenemethyl)-amino]-phenyl}-pyrrolidine-1-carboxylic acid tert-butyl ester]	23.3	22.8	24.1	7.7	–	–	–	–	–
O=C1NC(=O)c2ccc(Br)cc2C1=CNc1ccc(-c2ccncc2)cc1 [Example 329, 6-Bromo-4-[(4-pyridin-4-yl-phenylamino)-methylene]-4H-isoquinoline-1,3-dione]	–	–	–	–	14	4.7	30	18.5	–
O=C1NC(=O)c2ccc(I)cc2/C1=C/NCc1ccc(-c2ccccn2)c(O)c1 [Example 509, 4-[(3-Hydroxy-4-pyridin-2-yl-benzylamino)-methylene]-6-iodo-4H-isoquinoline-1,3-dione]	0.54	0.25	0.19	0.13	–	–	–	–	–
O=C1NC(=O)c2ccc(Br)cc2/C1=C/NCc1ccc(NC(=O)C(Cl)Cl)cc1 [Example 302, N-[4-({[(Z)-(6-Bromo-1,3-dioxo-2,3-dihydroisoquinolin-4(1H)-ylidene)methyl]amino}methyl)phenyl]-2,2-dichloroacetamide]	–	–	–	–	1.2	0.55	0.59	0.56	–
CN1CCN(c2ccc(N/C=C3\C(=O)NC(C)(C)c4ccc(-c5ccoc5)cc43)cc2)CC1 [Example 458, 6-Furan-3-yl-1,1-dimethyl-4-{[4-(4-methyl-piperazin-1-yl)-phenylamino]-methylene}-1,4-dihydro-2H-isoquinolin-3-one]	4.2	2.7	1.2	3.5	–	–	–	–	–
CC(C)(C)OC(=O)N1CCN(c2ccc(N/C=C3\C(=O)NC(=O)c4ccc(Br)cc43)cc2)CC1 [Example 294, tert-Butyl 4-(4-{[(Z)-(6-bromo-1,3-dioxo-2,3-dihydroisoquinolin-4(1H)-ylidene)methyl]amino}phenyl)piperazine-1-carboxylate]	–	–	–	–	24	9	> 50	49	–
CC(C)(C)OC(=O)N1CCN(c2ccc(N/C=C3\C(=O)NC(=O)c4ccc(I)cc43)cc2)CC1 [Example 377, tert-Butyl 4-(4-{[(Z)-(6-iodo-1,3-dioxo-2,3-dihydroisoquinolin-4(1H)-ylidene)methyl]amino}phenyl)piperazine-1-carboxylate]	–	–	–	–	> 50	11	> 50	> 50	–
O=C1NC(=O)c2ccc(Br)cc2/C1=C/NCc1ccccc1O [Example 174, (4Z)-6-Bromo-4-{[(2-hydroxybenzyl)amino]methylene}isoquinoline-1,3(2H,4H)-dione]	–	–	–	–	50	19	35	30	–
Cc1ccc2c(c1)CNC(=O)C2=CNc1ccc(N2CCOCC2)cc1 [Example 858, 7-Methyl-4-[(4-morpholin-4-yl-phenylamino)-methylene]-1,4-dihydro-2H-isoquinolin-3-one]	34.7	37.7	39	34.3	–	–	–	–	–
CN1CCN(c2ccc(N/C=C3\C(=O)NCc4ccc(Br)cc43)cc2)CC1 [Example 223, (4Z)-6-Bromo-4-({[4-(4-methylpiperazin-1-yl)phenyl]amino}methylene)-1,4-dihydroisoquinolin-3(2H)-one]	–	–	–	–	3.2	4.1	2.8	8.7	–
COC(=O)Oc1cc(CN/C=C2\C(=O)NC(=O)c3ccc(Br)cc32)ccc1OC [compound 83, 5-({[(Z)-(6-Bromo-1,3-dioxo-2,3-dihydroisoquinolin-4(1H)-ylidene)methyl]amino}methyl)-2-methoxyphenyl methyl carbonate]	–	–	–	–	29.9	4.5	2.6	3.2	–
COc1ccc(CN/C(C)=C2\C(=O)NC(=O)CC2c2ccccc2)cc1O (stereo not drawn) [Example 140, (3Z)-3-{1-[(3-hydroxy-4-methoxybenzyl)amino]ethylidene}-4-phenylpiperidine-2,6-dione]	–	–	–	–	> 50	> 50	> 50	30	–
CN1CCN(c2ccc(N/C=C3\C(=O)NC(C)(C)c4ccc(Br)cc43)cc2)CC1 [Example 452, 6-Bromo-1,1-dimethyl-4-{[4-(4-methyl-piperazin-1-yl)-phenylamino]-methylene}-1,4-dihydro-2H-isoquinolin-3-one]	3.3	3.1	1.5	9.3	–	–	–	–	–
